# According to patent US9676715B2, “Bis-indolic derivatives, a process for preparing the same and their uses as a drug” (UNIVERSITE JOSEPH FOURIER, priority 2011, dated 2017):
# Like-named read-outs stand apart in the source and are kept apart here.
# Key:
# [1] = test system: S. aureus ATCC 106414 (VISA); assay: MIC, microdilution method (9.1); assay type: cell-based, Staphylococcus aureus; settings: read after 18 h
# Procedure: (§1) The microdilution method recommended by the Clinical and Laboratory Standard Institute [M07-A8, Vol. 29, No. 2] was used. The activity of indolic compounds was tested against 29 bacterial strains belonging to 17 different species and 12 different genera (Staphylococcus, Streptococcus, Enterococcus, Listeria, Bacillus, Haemophilus, Escherichia, Klebsiella, Enterobacter, Serratia, Pseudomonas, and Acinetobacter). Bacterial inocula were prepared in Mueller Hinton broth (MH2, bioMérieux, Marcy L'Etoile, France), supplemented with 10% sheep blood for fastidious species (i.e., Streptococcus pneumoniae and Haemophilus influenzae). They were dispensed in 96 well microtiter plates (5×10^5 CFU/ml of final inoculum). Indolic compounds were added to the wells as to obtain two-fold serial concentrations (0.50-128 mg/L of final concentrations). Plates were incubated at 37° C. in ambient air, or at 37° C. in 5% CO2 enriched atmosphere for fastidious species. […] Drug-free cultures served as growth controls. Cultures receiving gentamicin, ciprofloxacin or cefotaxime served as positive controls.
# S. aureus ATCC 25923 = assay: MIC, microdilution method (9.1); assay type: cell-based, Staphylococcus aureus
# Procedure: as §1
# S. aureus ATCC 29213 = assay: MIC, microdilution method (9.1); assay type: cell-based, Staphylococcus aureus
# Procedure: as §1
# [2] = test system: S. aureus ATCC 33592 (MRSA); assay: MIC, microdilution method (9.1); assay type: cell-based, Staphylococcus aureus; settings: read after 18 h
# Procedure: as §1
# S. aureus ATCC 6538 = assay: MIC, microdilution method (9.1); assay type: cell-based, Staphylococcus aureus
# Procedure: as §1
# S. aureus ATCC 9144 = assay: MIC, microdilution method (9.1); assay type: cell-based, Staphylococcus aureus
# Procedure: as §1
# S. aureus CIP 103428 = assay: MIC, microdilution method (9.1); assay type: cell-based, Staphylococcus aureus
# Procedure: as §1
# [3] = test system: S. aureus CIP 65.25 (MRSA); assay: MIC, microdilution method (9.1); assay type: cell-based, Staphylococcus aureus; settings: read after 18 h
# Procedure: as §1
# S. aureus CIP 65.6 = assay: MIC, microdilution method (9.1); assay type: cell-based, Staphylococcus aureus
# Procedure: as §1
# S. aureus SA-1199B = assay: MIC, microdilution method (9.1); assay type: cell-based, Staphylococcus aureus
# Procedure: as §1
# [4] = test system: S. epidermidis ATCC 12228; assay: MIC, microdilution method (9.1); assay type: cell-based, Staphylococcus epidermidis
# Procedure: as §1
# [5] = test system: S. epidermidis CIP 103627; assay: MIC, microdilution method (9.1); assay type: cell-based, Staphylococcus epidermidis
# Procedure: as §1
# S. epidermidis CIP 81.55 = assay: MIC, microdilution method (9.1); assay type: cell-based, Staphylococcus epidermidis
# Procedure: as §1
# [6] = test system: HCT116 (human colon tumor); assay: In vitro cytotoxicity; assay type: cell-based; settings: read-out: % of cellular growth inhibition; for inhibition at 10 µM: HCT-116, 10^−5 M; for inhibition at 1 µM: HCT-116, 10^−6 M
# Procedure: (§2) In vitro cytotoxicity was assayed on three cell lines—KB (human mouth carcinoma), MCR5 (human lung fibroblast) and HCT116 (human colon tumor). Results are presented in table IV as % of cellular growth inhibition in presence of 10^−5 M and 10^−6 M of the tested bis-indolic derivatives.
# [7] = test system: KB (human mouth carcinoma); assay: In vitro cytotoxicity; assay type: cell-based; settings: read-out: % of cellular growth inhibition; for inhibition at 10 µM: 10^−5 M; for inhibition at 1 µM: 10^−6 M
# Procedure: as §2
# [8] = test system: MRC5 (human lung fibroblast); assay: In vitro cytotoxicity; assay type: cell-based; settings: read-out: % of cellular growth inhibition; for inhibition at 10 µM: 10^−5 M; for inhibition at 1 µM: 10^−6 M
# Procedure: as §2
# S. pneumoniae ATCC 6303 = assay: MIC, microdilution method (9.1); assay type: cell-based, Streptococcus pneumoniae; settings: 10% sheep blood, 5% CO2, 18 h
# Procedure: as §1
# [9] = test system: S. agalactiae (group B) ATCC 12400; assay: MIC, microdilution method (9.1); assay type: cell-based, Streptococcus agalactiae; settings: 18 h
# Procedure: as §1
# [10] = test system: S. pyogenes (group A) CIP 104226; assay: MIC, microdilution method (9.1); assay type: cell-based, Streptococcus pyogenes; settings: 18 h
# Procedure: as §1
# S. mitis CIP 103335 = assay: MIC, microdilution method (9.1); assay type: cell-based, Streptococcus mitis; settings: 18 h
# Procedure: as §1
# E. faecium CIP 54.32 = assay: MIC, microdilution method (9.1); assay type: cell-based, Enterococcus faecium; settings: 18 h
# Procedure: as §1
# E. faecalis ATCC 29212 = assay: MIC, microdilution method (9.1); assay type: cell-based, Enterococcus faecalis; settings: 18 h
# Procedure: as §1
# [11] = test system: Acinetobacter baumanii ATCC 19606; assay: MIC, microdilution method (9.1); assay type: cell-based; settings: 18 h
# Procedure: as §1
# [12] = test system: Bacillus subtilis CIP 5262; assay: MIC, microdilution method (9.1); assay type: cell-based; settings: 18 h
# Procedure: as §1
# [13] = test system: Klebsiella pneumoniae API ATCC 35657; assay: MIC, microdilution method (9.1); assay type: cell-based; settings: 18 h
# Procedure: as §1
# [14] = test system: Listeria innocua CIP 80.11; assay: MIC, microdilution method (9.1); assay type: cell-based; settings: 18 h
# Procedure: as §1
# [15] = test system: Pseudomonas aeruginosa CIP 5933; assay: MIC, microdilution method (9.1); assay type: cell-based; settings: 18 h
# Procedure: as §1
# [16] = test system: 29 bacterial strains belonging to 17 different species; assay: MIC determination, overall statements on the bacterial panel; assay type: cell-based; settings: summary of MIC results
# Procedure: as §1
# [17] = Staphylococcus aureus, read-out: MIC
# [18] = Staphylococcus aureus, ATCC25923, read after 18 h, read-out: MIC
# [19] = Staphylococcus aureus, ATCC29213, read after 18 h, read-out: MIC
# [20] = Staphylococcus aureus, ATCC6538, read after 18 h, read-out: MIC
# [21] = Staphylococcus aureus, ATCC9144, read after 18 h, read-out: MIC
# [22] = Staphylococcus aureus, CIP103428, read after 18 h, read-out: MIC
# [23] = Staphylococcus aureus, CIP65, read after 18 h, read-out: MIC
# [24] = Staphylococcus aureus, SA1199B, 18 h
# [25] = Staphylococcus epidermidis, ATCC12228, read after 18 h, read-out: MIC
# [26] = Staphylococcus epidermidis, CIP103627, read after 18 h, read-out: MIC
# [27] = Staphylococcus epidermidis, CIP81, read after 18 h, read-out: MIC
compound,measurement,setting,value
"COC(=O)C(NC(=O)c1c[nH]c2ccc(Br)cc12)c1c[nH]c2ccc(Br)cc12 (centres unmarked) [Compound 11, Methyl 2-(5-bromo-1H-indol-3-yl)-2-(5-bromo-1H-indole-3-carboxamido)acetate]",MIC,[1]; [17],4 µg/mL
same,MIC,S. aureus ATCC 25923; [18],4 µg/mL
same,MIC,S. aureus ATCC 29213; [19],4 µg/mL
same,MIC,[2]; [17],4 µg/mL
same,MIC,S. aureus ATCC 6538; [20],4 µg/mL
same,MIC,S. aureus ATCC 9144; [21],4 µg/mL
same,MIC,S. aureus CIP 103428; [22],4 µg/mL
same,MIC,[3]; [17],4 µg/mL
same,MIC,S. aureus CIP 65.6; [23],4 µg/mL
same,MIC,S. aureus SA-1199B; [24],4 µg/mL
same,MIC,[4]; [25],4 µg/mL
same,MIC,[5]; [26],4 µg/mL
same,MIC,S. epidermidis CIP 81.55; [27],4 µg/mL
same,inhibition at 10 µM,[6],51 ± 5%
same,inhibition at 1 µM,[6],0%
same,inhibition at 10 µM,[7],51 ± 1%
same,inhibition at 1 µM,[7],0%
same,inhibition at 10 µM,[8],28 ± 9%
same,inhibition at 1 µM,[8],0%
same,melting point,,126 °C
"O=C(NC(CO)c1c[nH]c2ccc(Br)cc12)c1c[nH]c2ccc(Br)cc12 (centres unmarked) [Compound 13, 5-Bromo-N-(1-(5-bromo-1H-indol-3-yl)-2-hydroxyethyl)-1H-indole-3-carboxamide]",MIC,[1]; [17],4 µg/mL
same,MIC,S. aureus ATCC 25923; [18],4 µg/mL
same,MIC,S. aureus ATCC 29213; [19],4 µg/mL
same,MIC,[2]; [17],4 µg/mL
same,MIC,S. aureus ATCC 6538; [20],4 µg/mL
same,MIC,S. aureus ATCC 9144; [21],4 µg/mL
same,MIC,S. aureus CIP 103428; [22],4 µg/mL
same,MIC,[3]; [17],4 µg/mL
same,MIC,S. aureus CIP 65.6; [23],4 µg/mL
same,MIC,S. aureus SA-1199B; [24],8 µg/mL
same,MIC,[4]; [25],4 µg/mL
same,MIC,[5]; [26],4 µg/mL
same,MIC,S. epidermidis CIP 81.55; [27],4 µg/mL
same,inhibition at 10 µM,[6],12 ± 5%
same,inhibition at 1 µM,[6],0%
same,inhibition at 10 µM,[7],1 ± 4%
same,inhibition at 1 µM,[7],0%
same,inhibition at 10 µM,[8],6 ± 1%
same,inhibition at 1 µM,[8],0%
same,melting point,,155 °C
tert-Butyl (2-(p-bromo)benzamido-2-(5-bromo-1H-indol-3-yl)ethyl)carbamate [Compound 8a],MIC,[1],>32 µg/mL
same,MIC,S. aureus ATCC 25923; read after 18 h,>128(>32) mg/L
same,MIC,S. aureus ATCC 29213; read after 18 h,>32 µg/mL
same,MIC,[2],>32 µg/mL
same,MIC,S. aureus ATCC 6538; read after 18 h,>32 µg/mL
same,MIC,S. aureus ATCC 9144; read after 18 h,>32 µg/mL
same,MIC,S. aureus CIP 103428; read after 18 h,>32 µg/mL
same,MIC,[3],>32 µg/mL
same,MIC,S. aureus CIP 65.6; read after 18 h,>32 µg/mL
same,MIC,"S. aureus SA-1199B; S. aureus SA-1199B, read after 18 h",>32 µg/mL
same,MIC,[4]; read after 18 h,>32 µg/mL
same,MIC,[5]; read after 18 h,>32 µg/mL
same,MIC,S. epidermidis CIP 81.55; read after 18 h,>32 µg/mL
same,MIC,S. pneumoniae ATCC 6303,128 µg/mL
same,MIC,[9],64 µg/mL
same,MIC,[10],>128 µg/mL
same,MIC,S. mitis CIP 103335,>128 µg/mL
same,MIC,E. faecium CIP 54.32,>128 µg/mL
same,MIC,E. faecalis ATCC 29212,>128 µg/mL
same,MIC,[11],>128(>32) mg/L
same,MIC,[12],>128 µg/mL
same,MIC,[13],64 µg/mL
same,MIC,[14],>128 µg/mL
same,MIC,[15],>128(>32) mg/L
same,intrinsic antibacterial activity (in words),[16],lack of intrinsic antibacterial activity
